Values quoted from earlier work, collected in paper PMC8497432 (ChemMedChem, 2021).

Conditions: ref 6f

- cell permeability: approximately 5%
Substance: UNC3866
